Key:
HAP1 MTAP-deleted = experiment: SDMA in-cell western assay, HAP1 MTAP-deleted cell line; format: cell-based; details: for IC50: Homo sapiens, HAP1 MTAP-deleted cell line; for MTAP Intact/Deleted Ratio: IC50 ratio HAP1 MTAP-intact / HAP1 MTAP-deleted
Summary of the method: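 Readout is cellular SDMA signal by in-cell western, with IC50 values derived from it. The cells are MTAP-null HAP1, matched to an isogenic MTAP-intact HAP1 line.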

PRMT5 [1] = biological target: T1, PRMT5 (Homo sapiens, UniProt O14744); experiment: PRMT5 IC50 assay in the presence of MTA as cofactor; format: biochemical; details: for IC50: PRMT5, MTA as cofactor; for SAM/MTA Ratio: ratio between Ki in the presence of SAM and Ki in the presence of MTA
T1 construct: purchased Viva (custom protein)
Summary of the method: (§1)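 IC50 values were measured against human PRMT5 with SAM, with MTA, or with no cofactor. Ki was derived from IC50 as Ki=IC50/1.5 with SAM and Ki=IC50/13.5 with MTA, and the Ki(SAM)/Ki(MTA) ratio was then taken.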

PRMT5 [2] = biological target: T1, PRMT5; experiment: PRMT5 IC50 assay in the presence of SAM as cofactor; format: biochemical
Summary of the method: as §1

HAP1 MTAP-intact = experiment: SDMA in-cell western assay, HAP1 MTAP-intact cell line; format: cell-based; details: Homo sapiens
Summary of the method: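 IC50 values come from SDMA in-cell western staining of HAP1 cells. The MTAP-intact line carries endogenous MTAP, while its MTAP-deleted counterpart lacks MTAP entirely. A selectivity ratio of at least 3 fold marks a compound as MTAP-selective.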

PRMT5 [3] = biological target: T1, PRMT5; experiment: PRMT5 IC50 assay with no cofactor; format: biochemical; details: read-out: No Co-factor IC50
Summary of the method: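 For the SAM-containing format, dividing IC50 by 1.5 yields Ki; for the MTA-containing format the divisor is 13.5. A third format without cofactor gives IC50 alone.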

T1 sequence (O14744 whole entry): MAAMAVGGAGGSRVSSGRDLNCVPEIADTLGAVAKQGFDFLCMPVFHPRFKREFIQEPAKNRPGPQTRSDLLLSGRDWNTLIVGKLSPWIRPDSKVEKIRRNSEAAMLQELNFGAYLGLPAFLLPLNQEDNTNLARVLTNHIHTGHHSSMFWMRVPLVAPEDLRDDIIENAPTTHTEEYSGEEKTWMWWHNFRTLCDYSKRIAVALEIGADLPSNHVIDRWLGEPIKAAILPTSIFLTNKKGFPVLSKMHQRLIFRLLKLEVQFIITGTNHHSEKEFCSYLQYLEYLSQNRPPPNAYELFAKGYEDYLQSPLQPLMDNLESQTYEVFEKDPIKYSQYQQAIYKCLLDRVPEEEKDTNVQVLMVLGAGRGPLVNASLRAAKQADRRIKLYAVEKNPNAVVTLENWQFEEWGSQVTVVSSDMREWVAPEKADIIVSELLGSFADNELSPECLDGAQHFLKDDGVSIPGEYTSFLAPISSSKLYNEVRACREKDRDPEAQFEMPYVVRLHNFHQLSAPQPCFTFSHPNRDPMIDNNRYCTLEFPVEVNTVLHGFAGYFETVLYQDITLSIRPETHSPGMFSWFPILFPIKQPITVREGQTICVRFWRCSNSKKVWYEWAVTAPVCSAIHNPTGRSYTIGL
T1 sequence (Q9BQA1 whole entry partner): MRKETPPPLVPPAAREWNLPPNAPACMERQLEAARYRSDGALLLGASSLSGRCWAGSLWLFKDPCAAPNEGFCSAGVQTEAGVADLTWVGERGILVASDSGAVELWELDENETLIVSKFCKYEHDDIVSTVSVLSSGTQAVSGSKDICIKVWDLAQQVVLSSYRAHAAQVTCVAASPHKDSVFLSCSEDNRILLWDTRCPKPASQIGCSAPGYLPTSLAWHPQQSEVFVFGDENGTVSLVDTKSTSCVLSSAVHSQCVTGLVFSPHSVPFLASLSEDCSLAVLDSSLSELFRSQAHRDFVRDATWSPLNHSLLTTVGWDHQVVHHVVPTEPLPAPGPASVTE

Structure (SMILES)	IC50 (HAP1 MTAP-deleted)	MTAP Intact/Deleted Ratio (HAP1 MTAP-deleted)	IC50 (PRMT5 [1])	SAM/MTA Ratio (PRMT5 [1])	IC50 (PRMT5 [2])	IC50 (HAP1 MTAP-intact)	IC50 (PRMT5 [3])
Cc1ncoc1COc1ccc2c(c1)CCN(C[C@@H](O)CNC(=O)c1cc(NC3CCC3)nc(N(C)C3CCC3)c1)C2 [Compound 635]	< 1000 nM	A* (an IC50 ratio greater than or equal to 10 fold between the IC50 in the HAP1 MTAP-intact cell line and the HAP1 MTAP-deleted cell line)	50 to 500 nM	A (a Ki ratio greater than or equal to 10 fold between the Ki in the presence of SAM and the Ki in the presence of MTA)	50 to 500 nM	1 to 10 µM	≥ 5000 nM
Cc1ncoc1COc1ccc2c(c1)CCN(C[C@@H](O)CNC(=O)c1cc(NC3CCC3)nc(NC3CCC3)c1)C2 [Compound 636, (S)-2,6-bis(cyclobutylamino)-N-(2-hydroxy-3-(6-((4-methyloxazol-5-yl)methoxy)-3N-dihydroisoquinolin-2(1H)-yl)propyl)isonicotinamide]	< 1000 nM	B* (an IC50 ratio greater than or equal to 3 fold but lower than 10 fold between the IC50 in the HAP1 MTAP-intact cell line and the HAP1 MTAP-deleted cell line)	50 to 500 nM	A (a Ki ratio greater than or equal to 10 fold between the Ki in the presence of SAM and the Ki in the presence of MTA)	50 to 500 nM	1 to 10 µM	500 to 5000 nM
CC(=O)N1CCC(Nc2cc(C(=O)NC[C@H](O)CN3CCc4cc(OCc5ocnc5C)ccc4C3)ccn2)C(C)C1 (stereo partly drawn) [Compound 637, 2-((1-acetyl-3-methylpiperidin-4-yl)amino)-N—((S)-2-hydroxy-3-(6-((4-methyloxazol-5-yl)methoxy)-3,4-dihydroisoquinolin-2(1H)-yl)propyl)isonicotinamide]	1000 to 10000 nM	B* (an IC50 ratio greater than or equal to 3 fold but lower than 10 fold between the IC50 in the HAP1 MTAP-intact cell line and the HAP1 MTAP-deleted cell line)	50 to 500 nM	A (a Ki ratio greater than or equal to 10 fold between the Ki in the presence of SAM and the Ki in the presence of MTA)	50 to 500 nM	1 to 10 µM	≥ 5000 nM
CC(=O)N1CC[C@H](Nc2cc(C(=O)NC[C@H](O)CN3CCc4cc(OCc5ocnc5C)ccc4C3)ccn2)C[C@H]1C [Compound 644, 2-(((2R,4S)-1-acetyl-2-methylpiperidin-4-yl)amino)-N—((S)-2-hydroxy-3-(6-((4-methyloxazol-5-yl)methoxy)-3,4-dihydroisoquinolin-2(1H)-yl)propyl)isonicotinamide]	< 1000 nM	A* (an IC50 ratio greater than or equal to 10 fold between the IC50 in the HAP1 MTAP-intact cell line and the HAP1 MTAP-deleted cell line)	< 50 nM	A (a Ki ratio greater than or equal to 10 fold between the Ki in the presence of SAM and the Ki in the presence of MTA)	50 to 500 nM	1 to 10 µM	500 to 5000 nM
CC(=O)N1[C@@H]2CC[C@H]1C[C@H](Nc1cc(C(=O)NC[C@H](O)CN3CCc4cc(OCc5ocnc5C)ccc4C3)ccn1)C2 [Compound 645, 2-(((1R,3r,5S)-8-acetyl-8-azabicyclo[3.2.1]octan-3-yl)amino)-N—((S)-2-hydroxy-3-(6-((4-methyloxazol-5-yl)methoxy)-3,4-dihydroisoquinolin-2(1H)-yl)propyl)isonicotinamide]	< 1000 nM	A* (an IC50 ratio greater than or equal to 10 fold between the IC50 in the HAP1 MTAP-intact cell line and the HAP1 MTAP-deleted cell line)	50 to 500 nM	A (a Ki ratio greater than or equal to 10 fold between the Ki in the presence of SAM and the Ki in the presence of MTA)	50 to 500 nM	≥ 10 µM	500 to 5000 nM
CC(=O)N1CCC(Nc2cc(C(=O)NC[C@H](O)CN3CCc4cc(OCc5ocnc5C)ccc4C3)nc(N3CCCCC3)n2)CC1 [Compound 647]	< 1000 nM	B* (an IC50 ratio greater than or equal to 3 fold but lower than 10 fold between the IC50 in the HAP1 MTAP-intact cell line and the HAP1 MTAP-deleted cell line)	< 50 nM	A (a Ki ratio greater than or equal to 10 fold between the Ki in the presence of SAM and the Ki in the presence of MTA)	50 to 500 nM	< 1 µM	50 to 500 nM
